In US11834517B2, “Branched peptides for enzymatic assembly and mitochondria drug delivery” (BRANDEIS UNIVERSITY, priority 2017, dated 2023):
Peptide text beside a SMILES is read from it. * marks the point of attachment. X2 = O=C(Cc1ccc2ccccc2c1)N[C@H](Cc1ccccc1)C(=O)N[C@H](Cc1ccccc1)C(=O)N[C@H](CCCCN*)C(=O)NCCNc1ccc([N+](=O)[O-])c2nonc12; X3 = O=C(Cc1ccc2ccccc2c1)N[C@@H](Cc1ccccc1)C(=O)N[C@@H](Cc1ccccc1)C(=O)N[C@@H](CCCCN*)C(=O)N[C@@H](Cc1ccc(O)cc1)C(=O)O; X1 = O=C(Cc1ccc2ccccc2c1)N[C@H](Cc1ccccc1)C(=O)N[C@H](Cc1ccccc1)C(=O)N[C@H](CCCCN*)C(=O)N[C@H](Cc1ccc(O)cc1)C(=O)O

How the values were obtained:
[1] = tested on: U87MG cells
[2] = tested on: HeLa cells; assay: Cell viability / cytotoxicity (MTT) assay, HeLa; type: cell-based
[3] = tested on: HS-5 cells; assay: Cell viability after GFP-TP53 plasmid transfection, HS-5; type: cell-based, human; details: HS-5, GFP-TP53 plasmid (5 μg/mL) mixed with Mito-Flag (200 μM), 3rd day
Description: (§1) FIGS. 24A-G show how perimitochondrial ENS causes mitochondrial transgene expression to induce mitophagy or apoptosis. FIG. 24A is a Western blot analysis of FUNDC1 and LC3B levels in the mitochondria fraction and cytosolic fraction, respectively, of HeLa cells incubated with conditions of interest. VDAC1 serves as mitochondria protein loading control. FUNDC1 plasmid: 5 μg/mL, Mito-Flag: 200 μM, Time: 2 days. FIG. 24B is a panel of fluorescent images showing that Mito-Flag perimitochondrial ENS delivering FUNDC1 gene into mitochondria to induce mitochondrial morphology changes within 2 days. FIG. 24C is a panel of fluorescent images showing that the detection of mitophagy via immunofluorescent staining of autophagy marker, LC3 (2nd day). FIG. 24D is a panel of fluorescent images of HeLa cells incubated with free GFP-TP53 plasmid and the plasmid mixed with Mito-Flag (200 μM, 24 h). FIG. 24E is a graph illustrating cell viability of HeLa, Saos-2, and HS-5 cells incubated with free GFP-TP53 plasmid (5 μg/mL), Mito-Flag (200 μM), and the plasmid (5 μg/mL) mixed with Mito-Flag (200 μM, 3rd day). Data are presented as mean±standard deviation. FIG. 24F is a panel of fluorescent images showing an apoptosis analysis on HeLa and HS-5 cells. […]

[4] = tested on: Saos-2 cell; assay: Cell viability after GFP-TP53 plasmid transfection, Saos-2; type: cell-based, human; details: Saos-2, single agent: free GFP-TP53 plasmid or Mito-Flag
Description: as §1

[5] = tested on: HeLa cells; assay: Cell viability after GFP-TP53 plasmid transfection, HeLa; type: cell-based, human; details: single agent: free GFP-TP53 plasmid (5 μg/mL) or Mito-Flag (200 μM), 3rd day
Description: as §1

[6] = tested on: HeLa cells; assay: Uptake and mitochondrial localization of NBD-Mito-Flag in HeLa cells in the presence of inhibitors; type: cell-based, human; details: NBD-Mito-Flag 200 μM; for mitochondrial localization of NBD-Mito-Flag: HeLa, with inhibitor (chloroquine 10 μM; erastin; Ndz 10 μM, 1 h pretreatment; FCCP pretreatment); for uptake of NBD-Mito-Flag (intracellular fluorescence): 2 h, with endocytosis inhibitor (CPZ 5 μM)
Description: FIG. 26B is a panel of confocal fluorescence images of HeLa cells incubated with NBD-Mito-Flag (200 μM) and chloroquine (10 μM). […] FIG. 26D is a panel of TEM images of mitochondria isolated from HeLa, HEK293 and HS-5 cells incubated with 200 μM Mito-Flag for 24 h. […] FIG. 26E and FIG. 26F are fluorescent images of NBD-Mito-Flag and RFP-LAMP1 in ENTK-knockdown HeLa cells. […] FIG. 26G-H are fluorescent images of the HeLa cells incubated with NBD-Mito-Flag (200 μM, 2 h) (FIG. 26G) or the mixture of virus (RFP-LAMP1) and Mito-Flag (200 μM, 24 h) (FIG. 26H) in the presence of erastin of different concentrations. […] FIG. 26I is a panel of fluorescent images of HeLa cells incubated with NBD-Mito-Flag (200 μM, 2 h) after the pretreatment by Ndz (10 μM, 1 h).
Intracellular Fluorescence Quantification: Cells were seeded in petri dishes and incubated in standard condition for 12 h before experiment. After being treated by the condition of interest, all cells were washed by PBS (3 time for 5 min). After the washing step, cells were detached from the dishes using trypsin. The trypsin was removed by centrifuge and washing with PBS. The cell suspensions (in PBS) were diluted to 10^5 cell/mL. 100 μL diluted cell suspension was added in a 96-well plate (at least 5 wells per sample). The intracellular fluorescence intensity was immediately determined using a DTX 880 Multimode Detector (Beckman Coulter Inc.). The experiments were repeated, and the intracellular fluorescence intensity was averaged (n>3).

[7] = tested on: MT-CO1-KO cancer cells; assay: Sensitivity of MT-CO1-KO cancer cells to chemotherapeutic agents; type: cell-based, human; details: MT-CO1 knocked out via Mito-Flag and CRISPR-MT-CO1 plasmid

NCCCC[C@H](NC(=O)[C@H](CC(=O)O)NC(=O)[C@H](CC(=O)O)NC(=O)[C@H](CC(=O)O)NC(=O)[C@H](CC(=O)O)NC(=O)[C@H](CCCCN)NC(=O)[C@H](Cc1ccc(O)cc1)NC(=O)[C@@H](N)CC(=O)O)C(=O)NCC(=O)NCCCC[C@@H](NC(=O)[C@@H](Cc1ccccc1)NC(=O)[C@@H](Cc1ccccc1)NC(=O)Cc1ccc2ccccc2c1)C(=O)NCCNc1ccc([N+](=O)[O-])c2nonc12 [D-1 ? FLAG] (H-DYKDDDDKG-X2)
cytotoxicity of branched peptide alone [1]: little cytotoxicity | cytotoxicity of branched peptide alone [2]: little cytotoxicity

NCCCC[C@H](NC(=O)[C@H](CC(=O)O)NC(=O)[C@H](CC(=O)O)NC(=O)[C@H](CC(=O)O)NC(=O)[C@H](CC(=O)O)NC(=O)[C@H](CCCCN)NC(=O)[C@H](Cc1ccc(O)cc1)NC(=O)[C@@H](N)CC(=O)O)C(=O)NCC(=O)NCCCC[C@@H](NC(=O)[C@@H](Cc1ccccc1)NC(=O)[C@@H](Cc1ccccc1)NC(=O)Cc1ccc2ccccc2c1)C(=O)N[C@H](Cc1ccc(O)cc1)C(=O)O [D-2 ? FLAG] (H-DYKDDDDKG-X1)
cell viability [3]: neither free GFP-TP53 plasmid nor the mixture of Mito-Flag and GFP-TP53 plasmid impairs the viability of HS-5 cells | cytotoxicity of branched peptide alone [1]: minimal cytotoxicity | cytotoxicity of branched peptide alone [2]: minimal cytotoxicity | cell viability [4]: innoxious | cell viability [5]: hardly causes cell death

N#CC(C#N)=NNc1ccc(OC(F)(F)F)cc1 [FCCP, p-trifluoromethoxy carbonylcyanide phenylhydrazone]
mitochondrial localization of NBD-Mito-Flag [6]: diminishes the mitochondria-specific localization

NCCCC[C@H](NC(=O)[C@H](CC(=O)O)NC(=O)[C@H](CC(=O)O)NC(=O)[C@H](CC(=O)O)NC(=O)[C@H](CC(=O)O)NC(=O)[C@H](CCCCN)NC(=O)[C@H](Cc1ccc(O)cc1)NC(=O)[C@@H](N)CC(=O)O)C(=O)NCC(=O)NCCCC[C@H](NC(=O)[C@H](Cc1ccccc1)NC(=O)[C@H](Cc1ccccc1)NC(=O)Cc1ccc2ccccc2c1)C(=O)N[C@@H](Cc1ccc(O)cc1)C(=O)O [L-2 ? FLAG] (H-DYKDDDDKG-X3)
cytotoxicity of branched peptide alone [1]: minimal cytotoxicity | cytotoxicity of branched peptide alone [2]: minimal cytotoxicity

CCN(CC)CCCC(C)Nc1ccnc2cc(Cl)ccc12 (stereo not drawn) [chloroquine]
mitochondrial localization of NBD-Mito-Flag [6]: significantly reduced mitochondrial localization

CN(C)CCCN1c2ccccc2Sc2ccc(Cl)cc21 [chlorpromazine]
uptake of NBD-Mito-Flag (intracellular fluorescence) [6]: significantly decreases the intracellular fluorescence

N.N.[Cl][Pt][Cl] [cisplatin]
sensitivity of MT-CO1-KO cancer cells versus wild type [7]: more sensitive

COC(=O)Nc1nc2ccc(C(=O)c3cccs3)cc2[nH]1 [nocodazole]
mitochondrial localization of NBD-Mito-Flag [6]: weakened mitochondrial fluorescence

M-β-CD
uptake of NBD-Mito-Flag (intracellular fluorescence) [6]: hardly affects the uptake
